Experimental data taken from ChEMBL document CHEMBL4418495, “Entpd5 inhibitors” (2012).
Active and inactive are the calls of the source. How the calls were made is not given here.

Molecular target: T1, Nucleoside diphosphate phosphatase ENTPD5 (Homo sapiens) (UniProt O75356)
T1 sequence (whole entry): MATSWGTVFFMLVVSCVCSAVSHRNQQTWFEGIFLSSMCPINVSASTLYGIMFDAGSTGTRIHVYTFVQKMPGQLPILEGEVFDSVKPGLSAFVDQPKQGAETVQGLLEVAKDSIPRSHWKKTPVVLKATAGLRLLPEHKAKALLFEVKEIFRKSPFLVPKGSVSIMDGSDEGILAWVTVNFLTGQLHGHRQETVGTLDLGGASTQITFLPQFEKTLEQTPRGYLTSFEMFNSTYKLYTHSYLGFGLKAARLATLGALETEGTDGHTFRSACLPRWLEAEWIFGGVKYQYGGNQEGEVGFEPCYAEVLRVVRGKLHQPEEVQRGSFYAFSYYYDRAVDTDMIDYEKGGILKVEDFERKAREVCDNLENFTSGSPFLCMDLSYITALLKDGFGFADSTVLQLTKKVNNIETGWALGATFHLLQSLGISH
Experiment: Inhibition of human recombinant ENTPD5 expressed in insect cells assessed as reduction in UDP hydrolysis at 1 uM incubated for 1 hr in presence of UMP, GTP and ATP by Escherichia coli UMP kinase pyrH catalyzed UMP phosphorylation coupled luciferase assay

SMILES	inhibition
O=C(Nc1nonc1NC(=O)c1sc2cc(Cl)ccc2c1Cl)c1sc2cc(Cl)ccc2c1Cl	Active
O=C1NC(=O)N(c2ccc(Cl)cc2)C(=O)/C1=C/c1cnn(-c2ccccc2)c1	Active
C=CCN1C(=O)/C(=C\c2cccn2C)C(=O)NC1=S	Active
O=C1C=CC(Br)=C/C1=C/NNC(=O)c1cc2ccccc2cc1O	Active
O=C(Nc1ccc2c(c1)S(=O)(=O)c1cc(NC(=O)c3cccs3)ccc1-2)c1cccs1	Active
O=C1NC(=O)N(c2ccc(Br)cc2)C(=O)/C1=C/c1c[nH]c2ccccc12	Active
O=C1C=CC(=O)c2c1c(-c1ccccc1)nn2-c1ccccc1	Active
COc1ccc(N2C(=O)/C(=C/c3cccn3-c3ccc(Br)cc3)C(=O)NC2=S)cc1	Active
COc1ccc([C@@H]2Nc3ccc(Br)cc3[C@@H]3C=CC[C@@H]32)cc1[N+](=O)[O-]	Active
O=S(=O)(c1ccc2ccccc2c1)N(CCc1csc2nc(-c3ccc4ccccc4c3)cn12)Cc1ccco1	Active
O=C1NC(=S)N(c2ccc(Cl)cc2)C(=O)/C1=C\c1ccc(-c2ccccc2C(=O)O)o1	Active
CCc1ccc(NS(=O)(=O)c2ccc(N3C(=O)c4cc([N+](=O)[O-])cc5cc([N+](=O)[O-])cc(c45)C3=O)cc2)cc1	Active
CCN1C(=O)/C(=C/c2cccn2C)C(=O)NC1=S	Active
O=C(NC(=S)Nc1cc(Cl)c(O)c(Cl)c1)c1cc2ccccc2o1	Active
O=C(O)c1cccc(N2N=C(C(F)(F)F)/C(=C/c3ccc(-c4ccc(S(=O)(=O)Nc5nccs5)cc4)o3)C2=O)c1	Active
CC1=NN(c2ccc(S(N)(=O)=O)cc2)C(=O)/C1=C/c1ccc(-c2ccc(C)cc2[N+](=O)[O-])o1	Active
O=C(Cn1cc(/C=C2/C(=O)NC(=O)N(c3ccc4c(c3)OCO4)C2=O)c2ccccc21)Nc1ccccc1	Active
O=C1NC(=O)N(c2ccc(Cl)cc2)C(=O)/C1=C/c1cccn1-c1ccccc1	Active
O=C1/C(=C\C=C\c2ccco2)SC(=S)N1Cc1ccccc1	Active

Molecular target: T1, Nucleoside diphosphate phosphatase ENTPD5 (Homo sapiens)
Experiment: Inhibition of human recombinant ENTPD5 expressed in insect cells assessed as reduction in UDP hydrolysis up to 10 uM incubated for 1 hr in presence of UMP, GTP and ATP by Escherichia coli UMP kinase pyrH catalyzed UMP phosphorylation coupled luciferase assay

SMILES	inhibition
O=C(Nc1nonc1NC(=O)c1sc2cc(Cl)ccc2c1Cl)c1sc2cc(Cl)ccc2c1Cl	Dose-dependent effect
O=C1NC(=O)N(c2ccc(Cl)cc2)C(=O)/C1=C/c1cnn(-c2ccccc2)c1	Dose-dependent effect
C=CCN1C(=O)/C(=C\c2cccn2C)C(=O)NC1=S	Dose-dependent effect
O=C1C=CC(Br)=C/C1=C/NNC(=O)c1cc2ccccc2cc1O	Dose-dependent effect
O=C(Nc1ccc2c(c1)S(=O)(=O)c1cc(NC(=O)c3cccs3)ccc1-2)c1cccs1	Dose-dependent effect
O=C1NC(=O)N(c2ccc(Br)cc2)C(=O)/C1=C/c1c[nH]c2ccccc12	Dose-dependent effect
O=C1C=CC(=O)c2c1c(-c1ccccc1)nn2-c1ccccc1	Dose-dependent effect
COc1ccc(N2C(=O)/C(=C/c3cccn3-c3ccc(Br)cc3)C(=O)NC2=S)cc1	Dose-dependent effect
COc1ccc([C@@H]2Nc3ccc(Br)cc3[C@@H]3C=CC[C@@H]32)cc1[N+](=O)[O-]	Dose-dependent effect
O=S(=O)(c1ccc2ccccc2c1)N(CCc1csc2nc(-c3ccc4ccccc4c3)cn12)Cc1ccco1	Dose-dependent effect
O=C1NC(=S)N(c2ccc(Cl)cc2)C(=O)/C1=C\c1ccc(-c2ccccc2C(=O)O)o1	Dose-dependent effect
CCc1ccc(NS(=O)(=O)c2ccc(N3C(=O)c4cc([N+](=O)[O-])cc5cc([N+](=O)[O-])cc(c45)C3=O)cc2)cc1	Dose-dependent effect
CCN1C(=O)/C(=C/c2cccn2C)C(=O)NC1=S	Dose-dependent effect
O=C(NC(=S)Nc1cc(Cl)c(O)c(Cl)c1)c1cc2ccccc2o1	Dose-dependent effect
O=C(O)c1cccc(N2N=C(C(F)(F)F)/C(=C/c3ccc(-c4ccc(S(=O)(=O)Nc5nccs5)cc4)o3)C2=O)c1	Dose-dependent effect
CC1=NN(c2ccc(S(N)(=O)=O)cc2)C(=O)/C1=C/c1ccc(-c2ccc(C)cc2[N+](=O)[O-])o1	Dose-dependent effect
O=C(Cn1cc(/C=C2/C(=O)NC(=O)N(c3ccc4c(c3)OCO4)C2=O)c2ccccc21)Nc1ccccc1	Dose-dependent effect
O=C1NC(=O)N(c2ccc(Cl)cc2)C(=O)/C1=C/c1cccn1-c1ccccc1	Dose-dependent effect
O=C1/C(=C\C=C\c2ccco2)SC(=S)N1Cc1ccccc1	Dose-dependent effect

Molecular target: T2, Uridylate kinase (Escherichia coli (strain K12)) (UniProt P0A7E9)
T2 sequence (whole entry): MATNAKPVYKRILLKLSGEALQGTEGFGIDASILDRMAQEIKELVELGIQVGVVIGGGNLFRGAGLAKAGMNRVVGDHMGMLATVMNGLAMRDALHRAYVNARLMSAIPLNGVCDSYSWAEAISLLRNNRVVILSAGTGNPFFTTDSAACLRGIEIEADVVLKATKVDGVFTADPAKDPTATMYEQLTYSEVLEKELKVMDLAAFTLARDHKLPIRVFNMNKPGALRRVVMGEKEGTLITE
Experiment: Inhibition of recombinant Escherichia coli UMP kinase pyrH catalyzed UMP phosphorylation in presence of GTP and ATP incubated for 1 hr by luminescence based assay

SMILES	inhibition
O=C(Nc1nonc1NC(=O)c1sc2cc(Cl)ccc2c1Cl)c1sc2cc(Cl)ccc2c1Cl	inactive
O=C1NC(=O)N(c2ccc(Cl)cc2)C(=O)/C1=C/c1cnn(-c2ccccc2)c1	inactive
C=CCN1C(=O)/C(=C\c2cccn2C)C(=O)NC1=S	inactive
O=C1C=CC(Br)=C/C1=C/NNC(=O)c1cc2ccccc2cc1O	inactive
O=C(Nc1ccc2c(c1)S(=O)(=O)c1cc(NC(=O)c3cccs3)ccc1-2)c1cccs1	inactive
O=C1NC(=O)N(c2ccc(Br)cc2)C(=O)/C1=C/c1c[nH]c2ccccc12	inactive
O=C1C=CC(=O)c2c1c(-c1ccccc1)nn2-c1ccccc1	inactive
COc1ccc(N2C(=O)/C(=C/c3cccn3-c3ccc(Br)cc3)C(=O)NC2=S)cc1	inactive
COc1ccc([C@@H]2Nc3ccc(Br)cc3[C@@H]3C=CC[C@@H]32)cc1[N+](=O)[O-]	inactive
O=S(=O)(c1ccc2ccccc2c1)N(CCc1csc2nc(-c3ccc4ccccc4c3)cn12)Cc1ccco1	inactive
O=C1NC(=S)N(c2ccc(Cl)cc2)C(=O)/C1=C\c1ccc(-c2ccccc2C(=O)O)o1	inactive
CCc1ccc(NS(=O)(=O)c2ccc(N3C(=O)c4cc([N+](=O)[O-])cc5cc([N+](=O)[O-])cc(c45)C3=O)cc2)cc1	inactive
CCN1C(=O)/C(=C/c2cccn2C)C(=O)NC1=S	inactive
O=C(NC(=S)Nc1cc(Cl)c(O)c(Cl)c1)c1cc2ccccc2o1	inactive
O=C(O)c1cccc(N2N=C(C(F)(F)F)/C(=C/c3ccc(-c4ccc(S(=O)(=O)Nc5nccs5)cc4)o3)C2=O)c1	inactive
CC1=NN(c2ccc(S(N)(=O)=O)cc2)C(=O)/C1=C/c1ccc(-c2ccc(C)cc2[N+](=O)[O-])o1	inactive
O=C(Cn1cc(/C=C2/C(=O)NC(=O)N(c3ccc4c(c3)OCO4)C2=O)c2ccccc21)Nc1ccccc1	inactive
O=C1NC(=O)N(c2ccc(Cl)cc2)C(=O)/C1=C/c1cccn1-c1ccccc1	inactive
O=C1/C(=C\C=C\c2ccco2)SC(=S)N1Cc1ccccc1	inactive

Molecular target: T1, Nucleoside diphosphate phosphatase ENTPD5 (Homo sapiens)
Experiment: Inhibition of human recombinant ENTPD5 expressed in insect cells assessed as reduction in reduction in UDP hydrolysis by measuring inorganic phosphate release incubated for 1 hr by malachite green based assay

SMILES	inhibition
O=C(Nc1nonc1NC(=O)c1sc2cc(Cl)ccc2c1Cl)c1sc2cc(Cl)ccc2c1Cl	Active
O=C1NC(=O)N(c2ccc(Cl)cc2)C(=O)/C1=C/c1cnn(-c2ccccc2)c1	Active
C=CCN1C(=O)/C(=C\c2cccn2C)C(=O)NC1=S	Active
O=C1C=CC(Br)=C/C1=C/NNC(=O)c1cc2ccccc2cc1O	Active
O=C(Nc1ccc2c(c1)S(=O)(=O)c1cc(NC(=O)c3cccs3)ccc1-2)c1cccs1	Active
O=C1NC(=O)N(c2ccc(Br)cc2)C(=O)/C1=C/c1c[nH]c2ccccc12	Active
O=C1C=CC(=O)c2c1c(-c1ccccc1)nn2-c1ccccc1	Active
COc1ccc(N2C(=O)/C(=C/c3cccn3-c3ccc(Br)cc3)C(=O)NC2=S)cc1	Active
COc1ccc([C@@H]2Nc3ccc(Br)cc3[C@@H]3C=CC[C@@H]32)cc1[N+](=O)[O-]	Active
O=S(=O)(c1ccc2ccccc2c1)N(CCc1csc2nc(-c3ccc4ccccc4c3)cn12)Cc1ccco1	Active
O=C1NC(=S)N(c2ccc(Cl)cc2)C(=O)/C1=C\c1ccc(-c2ccccc2C(=O)O)o1	Active
CCc1ccc(NS(=O)(=O)c2ccc(N3C(=O)c4cc([N+](=O)[O-])cc5cc([N+](=O)[O-])cc(c45)C3=O)cc2)cc1	Active
CCN1C(=O)/C(=C/c2cccn2C)C(=O)NC1=S	Active
O=C(NC(=S)Nc1cc(Cl)c(O)c(Cl)c1)c1cc2ccccc2o1	Active
O=C(O)c1cccc(N2N=C(C(F)(F)F)/C(=C/c3ccc(-c4ccc(S(=O)(=O)Nc5nccs5)cc4)o3)C2=O)c1	Active
CC1=NN(c2ccc(S(N)(=O)=O)cc2)C(=O)/C1=C/c1ccc(-c2ccc(C)cc2[N+](=O)[O-])o1	Active
O=C(Cn1cc(/C=C2/C(=O)NC(=O)N(c3ccc4c(c3)OCO4)C2=O)c2ccccc21)Nc1ccccc1	Active
O=C1NC(=O)N(c2ccc(Cl)cc2)C(=O)/C1=C/c1cccn1-c1ccccc1	Active
O=C1/C(=C\C=C\c2ccco2)SC(=S)N1Cc1ccccc1	Active
